Source: ChEMBL document CHEMBL4376803, “Recent Advances in the Exploration of Therapeutic Analogues of Gramicidin S, an Old but Still Potent Antimicrobial Peptide” (J Med Chem, 2019)
Converted amounts (≈) assume the structure as drawn. Values belong to the compound of their own block, whether it stands above or below them. Square brackets hold non-standard residues; d marks the D form. Peptide text beside a SMILES is read from it. Orn = NCCC[C@H](N)C(=O)O

How the values were obtained:
Escherichia coli [1] = test: Antibacterial activity against Escherichia coli ATCC 25922 after overnight incubation; assay type: functional
Enterococcus faecalis [2] = test: Antibacterial activity against Enterococcus faecalis ATCC 29212 after overnight incubation; assay type: functional
Staphylococcus aureus [3] = test: Antibacterial activity against Staphylococcus aureus ATCC 29213 after overnight incubation; assay type: functional
Pseudomonas aeruginosa [4] = test: Antibacterial activity against Pseudomonas aeruginosa ATCC 27853 after overnight incubation; assay type: functional
[5] = test system: Staphylococcus epidermidis; test: Antibacterial activity against Staphylococcus epidermidis ATCC 12228 after overnight incubation; assay type: functional
Bacillus cereus = test: Antibacterial activity against Bacillus cereus ATCC 11778 after overnight incubation; assay type: functional
Erythrocyte [6] = test: Haemolytic activity in human RBC after 4 hrs by visual method; assay type: ADME, cell-based
Lipopolysaccharide (LPS) = test: Displacement of Dansyl-polymyxin from Pseudomonas aeruginosa LPS by fluorescence method; settings: read-out: I50
[7] = Therapeutic index, ratio of HD100 for hemolytic activity in human RBC to MIC against Escherichia coli UB1005; assay type: toxicity; settings: human red blood cells, read-out: TI
[8] = Therapeutic index, ratio of HD100 for hemolytic activity in human RBC to MIC against Pseudomonas aeruginosa H187; assay type: toxicity; settings: human red blood cells, read-out: TI
[9] = Therapeutic index, ratio of HD100 for hemolytic activity in human RBC to MIC against Enterococcus faecalis ATCC 29212; assay type: toxicity; settings: human red blood cells, read-out: TI
[10] = Therapeutic index, ratio of HD100 for hemolytic activity in human RBC to MIC against Staphylococcus aureus K147; assay type: toxicity; settings: human red blood cells, read-out: TI
[11] = Therapeutic index, ratio of HD100 for hemolytic activity in human RBC to MIC against Candida albicans; assay type: toxicity; settings: human red blood cells, read-out: TI
[12] = (§1) Haemolytic activity in human erythrocytes; assay type: ADME, cell-based, Erythrocyte; settings: human erythrocytes
Erythrocyte [13] = test: as §1; assay type: ADME, cell-based; settings: erythrocyte
[14] = Therapeutic index, ratio of HD100 for hemolytic activity in human erythrocytes to MIC against Escherichia coli ATCC 25922; assay type: toxicity, cell-based; settings: read-out: TI
[15] = Therapeutic index, ratio of HD100 for hemolytic activity in human erythrocytes to MIC against Pseudomonas aeruginosa ATCC 27853; assay type: toxicity, cell-based; settings: read-out: TI
[16] = Therapeutic index, ratio of HD100 for hemolytic activity in human erythrocytes to MIC against Enterococcus faecalis ATCC 29212; assay type: toxicity, cell-based; settings: read-out: TI
[17] = Therapeutic index, ratio of HD100 for hemolytic activity in human erythrocytes to MIC against Staphylococcus aureus ATCC 29213; assay type: toxicity, cell-based; settings: read-out: TI
[18] = Therapeutic index, ratio of HD100 for hemolytic activity in human erythrocytes to MIC against methicillin-resistant Staphylococcus aureus ATCC 4330; assay type: toxicity, cell-based; settings: read-out: TI
[19] = Hemolytic activity in sheep RBC incubated for 30 mins; assay type: ADME, cell-based, Ovis aries, Erythrocyte; settings: sheep red blood cells
[20] = Haemolytic activity in human erythrocytes incubated for 30 mins; assay type: ADME, cell-based, Erythrocyte
[21] = Hemolytic activity against RBC (unknown origin) at 100 ul after 4 hrs; assay type: ADME, cell-based, Erythrocyte; settings: red blood cells (unknown origin)
Erythrocyte [22] = test: Haemolytic activity in human RBC after 30 mins by spectrophotometric analysis; assay type: ADME, cell-based; settings: 0.5 h
[23] = Haemolytic activity in human erythrocytes at 100 ug/ml after 30 mins relative to control; assay type: ADME, cell-based, Erythrocyte; settings: read-out: Activity
[24] = Hemolytic activity in sheep erythrocytes; assay type: ADME, cell-based, Ovis aries, Erythrocyte
[25] = Haemolytic activity in human RBC after 4 hrs; assay type: ADME, cell-based, Erythrocyte; settings: human red blood cells
[26] = Haemolytic activity in human RBC incubated for 1 hr; assay type: ADME, cell-based, Erythrocyte; settings: human red blood cells
[27] = Therapeutic index, ratio of HC90 for hemolytic activity in human erythrocytes to MIC against Escherichia coli ATCC 25922; assay type: toxicity, cell-based; settings: read-out: TI
[28] = Therapeutic index, ratio of HC90 for hemolytic activity in human erythrocytes to MIC against Enterococcus faecalis ATCC 29212; assay type: toxicity, cell-based; settings: read-out: TI
[29] = Therapeutic index, ratio of HC90 for hemolytic activity in human erythrocytes to MIC against Staphylococcus aureus ATCC 25923; assay type: toxicity, cell-based; settings: read-out: TI
[30] = Therapeutic index, ratio of HC90 for hemolytic activity in human erythrocytes to MIC against Staphylococcus epidermidis ATCC 12228; assay type: toxicity, cell-based; settings: read-out: TI
Staphylococcus aureus [31] = test: Antibacterial activity against Staphylococcus aureus K147 after overnight incubation by microtiter dilution method; assay type: functional
Pseudomonas aeruginosa [32] = test: Antibacterial activity against Pseudomonas aeruginosa H188 after overnight incubation by microtiter dilution method; assay type: functional
Escherichia coli [33] = test: Antibacterial activity against Escherichia coli DC2 after overnight incubation by microtiter dilution method; assay type: functional
Enterococcus faecalis [34] = test: Antibacterial activity against Enterococcus faecalis C625 after overnight incubation by microtiter dilution method; assay type: functional
[35] = test system: Staphylococcus epidermidis; test: Antibacterial activity against Staphylococcus epidermidis C621 after 22 hrs by double dilution method; assay type: functional; settings: C621, 22 h

MIC (Escherichia coli [1]): > 64 µg/mL
MIC (Enterococcus faecalis [2]): 8 µg/mL (≈ 6.69 µM)
MIC (Staphylococcus aureus [3]): 4 to 8 µg/mL (≈ 3.34 to 6.69 µM)
MIC (Pseudomonas aeruginosa [4]): > 64 µg/mL
MIC [5]: 2 µg/mL (≈ 1.67 µM)
MIC (Bacillus cereus): 4 µg/mL (≈ 3.34 µM)
SMILES: CC(C)C[C@@H]1NC(=O)[C@H](CCCN)NC(=O)[C@H](C(C)C)NC(=O)[C@@H]2CCCN2C(=O)[C@@H](Cc2ccccc2)NC(=O)[C@H](CC(C)C)NC(=O)[C@H](CCCN)NC(=O)[C@H](C(C)C)NC(=O)[C@@H]2O[C@H](CNC1=O)[C@@H](OCc1ccc3ccccc3c1)[C@@H]2O

SMILES: CC(C)C[C@@H]1NC(=O)[C@H](CCCN)NC(=O)[C@H](C(C)C)NC(=O)[C@@H]2CCCN2C(=O)[C@@H](Cc2ccccc2)NC(=O)[C@H](CC(C)C)NC(=O)[C@H](CCCN)NC(=O)[C@H](C(C)C)NC(=O)[C@@H]2CCCN2C(=O)[C@@H](Cc2ccccc2)NC1=O (cyclo(L[dF]PV[Orn]L[dF]PV[Orn]))
HD100 (Erythrocyte [6]): 12.5 µg/mL
IC50 (Lipopolysaccharide (LPS)): 295 µM
selectivity ratio [7]: 2
selectivity ratio [8]: 0.6
selectivity ratio [9]: 4.5
selectivity ratio [10]: 8.3
selectivity ratio [11]: 4
HC50 [12]: 12 µg/mL
Activity (Erythrocyte [13]): 62.5 µg/mL
selectivity ratio [14]: 2
selectivity ratio [15]: 1
selectivity ratio [16]: 7.8
selectivity ratio [17]: 15.6
selectivity ratio [18]: 7.8
HC50 at 0.5 h [19]: 25 to 35 µg/mL
HC50 at 0.5 h [20]: 5 to 10 µg/mL
HC50 at 4 h [21]: 5 to 31.2 µg/mL
HC90 (Erythrocyte [22]): 12 µg/mL
hemolysis at 0.5 h, 100 ug/ml [23]: 80%
HC50 [24]: 25 to 35 µg/mL
HC50 at 4 h [25]: 17.5 µg/mL
HC50 at 1 h [26]: 14.3 µg/mL
selectivity ratio [27]: 0.38
selectivity ratio [28]: 1.5
selectivity ratio [29]: 3
selectivity ratio [30]: 6

MIC (Staphylococcus aureus [31]): 12.5 µg/mL (≈ 12.3 µM)
MIC (Pseudomonas aeruginosa [32]): 12.5 µg/mL (≈ 12.3 µM)
MIC (Escherichia coli [33]): 25 µg/mL (≈ 24.7 µM)
MIC (Enterococcus faecalis [34]): 25 µg/mL (≈ 24.7 µM)
MIC [35]: 12.5 µg/mL (≈ 12.3 µM)
SMILES: CC(C)C[C@@H]1NC(=O)[C@H](CCCN)NC(=O)[C@H](C(C)C)NC(=O)[C@@H]2CC[C@@H]3CC[C@H](NC(=O)[C@H](CC(C)C)NC(=O)[C@@H](CCCN)NC(=O)[C@H](C(C)C)NC(=O)[C@@H]4CC[C@@H]5CC[C@H](NC1=O)C(=O)N54)C(=O)N32
HC90 (Erythrocyte [6]): 400 µg/mL
